Assay results: PMC5298231, “The Malaria Parasite's Lactate Transporter PfFNT Is the Target of Antiplasmodial Compounds Identified in Whole Cell Phenotypic Screens” (PLoS Pathogens, 2017)
Peptide text beside a SMILES is read from it.

System: erythrocytes infected with 3D7 trophozoites
Type: cell-based, Plasmodium falciparum
Settings: sheet Ratio; for Ratio of metabolite abundance, Exp1_1hr: Exp1, 1hr; for Ratio of metabolite abundance, Exp1_3hr: Exp1, 3hr; for Ratio of metabolite abundance, Exp1_6hr: Exp1, 6hr; for Ratio of metabolite abundance, Exp2_1hr: Exp2, 1hr; for Ratio of metabolite abundance, Exp2_3hr: Exp2, 3hr; for Ratio of metabolite abundance, Exp2_6hr: Exp2, 6hr; for Ratio of metabolite abundance, Exp3_1hr: Exp3, 1hr; for Ratio of metabolite abundance, Exp3_3hr: Exp3, 3hr; for Ratio of metabolite abundance, Exp3_6hr: Exp3, 6hr

SMILES	Ratio of metabolite abundance, Exp1_1hr	Ratio of metabolite abundance, Exp1_3hr	Ratio of metabolite abundance, Exp1_6hr	Ratio of metabolite abundance, Exp2_1hr	Ratio of metabolite abundance, Exp2_3hr	Ratio of metabolite abundance, Exp2_6hr	Ratio of metabolite abundance, Exp3_1hr	Ratio of metabolite abundance, Exp3_3hr	Ratio of metabolite abundance, Exp3_6hr
CC(C)[C@H](NC(=O)[C@@H]1CCCN1C(=O)[C@@H]1CCCN1)C(=O)N[C@@H](CCC(N)=O)C(=O)O [PPVQ] (H-PPVQ-OH)	1.0595	0.6401	0.763	1.014	0.8051	0.8204	0.973	0.9388	0.9472
CC(C)[C@H](NC(=O)[C@@H]1CCCN1)C(=O)N[C@@H](CC(N)=O)C(=O)N[C@@H](Cc1ccccc1)C(=O)O [PVNF] (H-PVNF-OH)	0.6556	0.3908	1.343	0.8248	0.5795	1.295	0.9151	0.7449	2.085
CC(C)[C@H](NC(=O)[C@@H]1CCCN1)C(=O)N[C@@H](CCC(N)=O)C(=O)N[C@@H](C)C(=O)O [PVQA] (H-PVQA-OH)	0.5661	0.3168	0.8691	0.7152	0.5356	0.8856	0.5318	0.3152	1.03
CC(C)[C@H](NC(=O)[C@@H]1CCCN1)C(=O)N[C@@H](CCC(N)=O)C(=O)O [PVQ] (H-Pro-Val-Gln-OH)	1.621	0.8912	2.731	1.963	1.4303	3.535	1.9381	1.515	2.354
O=C(O)C1CCCCN1 (stereo not drawn) [Pipecolate]	1.3778	1.045	1.52	1.38	1.052	2.481	1.352	1.13	2.281
O=C[C@H](O)[C@H](O)[C@H](O)COP(=O)(O)O [Ribose-5-phosphate]	2.775	3.2124	2.288	1.429	1.2203	1.178	1.678	1.594	1.155
Nc1ncnc2c1ncn2[C@@H]1O[C@H](CSCC[C@H](N)C(=O)O)[C@@H](O)[C@H]1O [S-Adenosyl-L-homocysteine]	0.9683	0.7021	0.8395	0.9429	0.8753	1.175	0.839	0.8468	0.8042
